Test results as given in PMC6706138, “IL-6–HaloTag® enables live-cell plasma membrane staining, flow cytometry, functional expression, and de-orphaning of recombinant odorant receptors” (Journal of Biological Methods, 2017).

Assays:
Assay type in all cases: cell-based
[1] = biological target: T1, OR2M3 (Homo sapiens, UniProt Q8NG83); assay: GloSensor cAMP luminescence; details: IL-6-HaloTag construct, NxG […]CC15 cells, pH […] DMSO, RTP1S/Gαolf/Gγ[…] co-transfected; agonist; read-out: IL-6-HaloTag®-receptor / EC50
T1 construct: full coding region amplified from human genomic DNA, N-terminal IL-6-HaloTag kept, transient in NxG 108CC15 cells with RTP1S, G-alpha-olf, G-gamma-13, GloSensor-22F
T1 sequence (Q8NG83 1-312): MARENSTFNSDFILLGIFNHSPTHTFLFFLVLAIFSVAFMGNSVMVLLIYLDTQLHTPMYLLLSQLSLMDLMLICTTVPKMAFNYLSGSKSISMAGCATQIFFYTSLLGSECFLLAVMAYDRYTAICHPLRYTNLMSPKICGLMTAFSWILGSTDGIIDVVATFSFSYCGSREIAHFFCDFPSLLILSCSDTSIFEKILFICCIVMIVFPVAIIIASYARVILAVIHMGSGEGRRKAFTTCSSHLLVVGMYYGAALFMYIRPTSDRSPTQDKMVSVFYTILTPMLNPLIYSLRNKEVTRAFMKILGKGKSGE
Description: GloSensor cAMP luminescence on OR2M3

[2] = biological target: T2, OR1A1 (Homo sapiens, UniProt Q9P1Q5); assay: GloSensor cAMP luminescence; details: read-out: IL-6-HaloTag®-receptor / EC50
T2 construct: full coding region amplified from human genomic DNA, N-terminal IL-6-HaloTag kept, transient in NxG 108CC15 cells with RTP1S, G-alpha-olf, G-gamma-13, GloSensor-22F
T2 sequence (Q9P1Q5 1-309): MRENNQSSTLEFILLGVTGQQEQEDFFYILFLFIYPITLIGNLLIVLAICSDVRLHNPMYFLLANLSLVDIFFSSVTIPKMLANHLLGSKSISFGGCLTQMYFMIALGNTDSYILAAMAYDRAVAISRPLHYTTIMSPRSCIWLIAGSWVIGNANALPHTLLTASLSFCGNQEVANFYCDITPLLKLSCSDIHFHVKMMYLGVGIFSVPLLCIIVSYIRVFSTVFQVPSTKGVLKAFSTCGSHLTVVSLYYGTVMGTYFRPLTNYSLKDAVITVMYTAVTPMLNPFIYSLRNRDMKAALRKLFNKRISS
Description: GloSensor cAMP luminescence on OR1A1

[3] = biological target: T3, OR2W1 (Homo sapiens, UniProt Q9Y3N9); assay: GloSensor cAMP luminescence
T3 construct: full coding region amplified from human genomic DNA, N-terminal IL-6-HaloTag kept, transient in NxG 108CC15 cells with RTP1S, G-alpha-olf, G-gamma-13, GloSensor-22F
T3 sequence (Q9Y3N9 1-320): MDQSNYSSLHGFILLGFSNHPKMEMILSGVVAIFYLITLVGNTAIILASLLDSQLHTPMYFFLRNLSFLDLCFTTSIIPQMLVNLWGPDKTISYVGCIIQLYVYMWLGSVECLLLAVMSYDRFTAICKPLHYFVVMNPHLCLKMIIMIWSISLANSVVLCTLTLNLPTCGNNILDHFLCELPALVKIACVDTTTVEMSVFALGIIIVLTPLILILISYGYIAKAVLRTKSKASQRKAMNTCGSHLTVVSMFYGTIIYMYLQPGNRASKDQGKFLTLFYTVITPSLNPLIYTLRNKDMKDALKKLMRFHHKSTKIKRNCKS
Description: GloSensor cAMP luminescence on OR2W1

[4] = biological target: T2, OR1A1; assay: GloSensor cAMP luminescence, single-concentration screen; details: IL-6-HaloTag construct, NxG […]CC15 cells, n = […] in duplicates, agonist
[5] = biological target: T4, OR51E1 (Homo sapiens, UniProt Q8TCB6); assay: GloSensor cAMP luminescence; details: read-out: IL-6-HaloTag®-receptor / EC50
T4 construct: full coding region amplified from human genomic DNA, N-terminal IL-6-HaloTag kept, transient in NxG 108CC15 cells with RTP1S, G-alpha-olf, G-gamma-13, GloSensor-22F
T4 sequence (Q8TCB6 1-318): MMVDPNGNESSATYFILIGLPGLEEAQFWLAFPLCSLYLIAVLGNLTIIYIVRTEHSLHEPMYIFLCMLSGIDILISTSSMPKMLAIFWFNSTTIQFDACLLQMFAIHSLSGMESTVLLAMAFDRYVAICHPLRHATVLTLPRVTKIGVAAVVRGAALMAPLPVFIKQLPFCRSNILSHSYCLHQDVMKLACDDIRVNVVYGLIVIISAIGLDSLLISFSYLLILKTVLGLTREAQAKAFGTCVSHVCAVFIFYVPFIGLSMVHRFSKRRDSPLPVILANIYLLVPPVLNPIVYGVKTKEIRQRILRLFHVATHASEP
Description: GloSensor cAMP luminescence on OR51E1

[6] = biological target: T5, Olfr16 (Mus musculus, UniProt Q62007); assay: GloSensor cAMP luminescence; details: read-out: IL-6-HaloTag®-receptor / EC50
T5 construct: gene Or10j5; full coding region amplified from mouse genomic DNA, N-terminal IL-6-HaloTag kept, transient in NxG 108CC15 cells with RTP1S, G-alpha-olf, G-gamma-13, GloSensor-22F
T5 sequence (Q62007 1-309): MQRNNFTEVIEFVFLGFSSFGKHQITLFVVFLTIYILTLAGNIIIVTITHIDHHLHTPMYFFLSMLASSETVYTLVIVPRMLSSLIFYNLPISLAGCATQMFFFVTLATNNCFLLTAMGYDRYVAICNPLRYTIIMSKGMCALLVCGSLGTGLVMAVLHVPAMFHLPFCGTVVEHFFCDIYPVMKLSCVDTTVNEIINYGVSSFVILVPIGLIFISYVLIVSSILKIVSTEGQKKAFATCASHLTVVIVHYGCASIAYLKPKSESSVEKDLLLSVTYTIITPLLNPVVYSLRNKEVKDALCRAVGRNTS
Description: GloSensor cAMP luminescence on Olfr16

[7] = biological target: T6, OR10J5 (Homo sapiens, UniProt Q8NHC4); assay: GloSensor cAMP luminescence; details: read-out: IL-6-HaloTag®-receptor / EC50
T6 construct: full coding region amplified from human genomic DNA, N-terminal IL-6-HaloTag kept, transient in NxG 108CC15 cells with RTP1S, G-alpha-olf, G-gamma-13, GloSensor-22F
T6 sequence (Q8NHC4 1-309): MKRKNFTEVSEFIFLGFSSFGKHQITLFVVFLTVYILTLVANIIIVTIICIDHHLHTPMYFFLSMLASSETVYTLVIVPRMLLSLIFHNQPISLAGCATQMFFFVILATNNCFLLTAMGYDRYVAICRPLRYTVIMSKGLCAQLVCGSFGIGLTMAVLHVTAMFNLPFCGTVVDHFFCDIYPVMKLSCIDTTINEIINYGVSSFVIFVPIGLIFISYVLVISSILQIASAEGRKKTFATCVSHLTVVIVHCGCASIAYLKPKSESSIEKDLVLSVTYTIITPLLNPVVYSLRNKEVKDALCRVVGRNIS
Description: GloSensor cAMP luminescence on OR10J5

[8] = biological target: T7, OR8D1 (Homo sapiens, UniProt Q8WZ84); assay: GloSensor cAMP luminescence
T7 construct: full coding region amplified from human genomic DNA, N-terminal IL-6-HaloTag kept, transient in NxG 108CC15 cells with RTP1S, G-alpha-olf, G-gamma-13, GloSensor-22F
T7 sequence (Q8WZ84 1-308): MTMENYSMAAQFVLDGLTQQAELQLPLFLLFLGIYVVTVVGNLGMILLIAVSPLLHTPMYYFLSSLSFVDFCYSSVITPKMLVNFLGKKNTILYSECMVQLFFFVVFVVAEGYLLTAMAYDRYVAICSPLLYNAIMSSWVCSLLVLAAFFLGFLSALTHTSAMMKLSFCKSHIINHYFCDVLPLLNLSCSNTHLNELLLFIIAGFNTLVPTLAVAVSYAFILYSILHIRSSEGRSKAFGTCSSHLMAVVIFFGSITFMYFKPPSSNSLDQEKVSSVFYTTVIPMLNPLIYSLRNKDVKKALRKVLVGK
Description: GloSensor cAMP luminescence on OR8D1

Structure (SMILES): CCC(S)C(C)CO (centres unmarked) [3-mercapto-2-methylpentan-1-ol]
- EC50 [1]: 1.08 ± 1.16 µM

Structure (SMILES): C=C(C)[C@@H]1CC=C(C)C(=O)C1 [(R)-(-)-carvone]
- EC50 [2]: 7.66 ± 4.75 µM

Structure (SMILES): C=CCOC(=O)Cc1ccccc1 [allyl phenyl acetate]
- EC50 [3]: 27 ± 1.37 µM
- GloSensor cAMP luminescence, single-concentration screen [4]: allyl phenyl acetate best activated OR1A1 and OR2W1

Structure (SMILES): CCCC(=O)O [butyric acid]
- EC50 [5]: 95.6 ± 33.4 µM

Structure (SMILES): CC(C)(O)CCCC1=CCC(C=O)CC1 (centres unmarked) [lyral]
- EC50 [6]: 34 ± 2.21 µM
- EC50 [7]: 16.3 ± 1.05 µM

Structure (SMILES): CC1=C(O)C(=O)OC1C (centres unmarked) [sotolone]
- EC50 [8]: 1.81 ± 0.19 µM
